Laboratory results taken from ChEMBL document CHEMBL1212803, “Resistance-associated mutations to etravirine (TMC-125) in antiretroviral-naïve patients infected with non-B HIV-1 subtypes” (2010).

What was measured:
Type in all cases: functional
[1] = tested on: Human immunodeficiency virus 1; assay: Antiviral activity against HIV-1 subtype CRF02_AG containing reverse transcriptase A98G/V35T, V60I, I135L, S162A, K173A, Q174K, D177E, I178M, T200A,Q207E, R211K, V245Q, D250E mutant relative to control
[2] = tested on: Human immunodeficiency virus 1; assay: Antiviral activity against HIV-1 subtype CRF02_AG containing reverse transcriptase V90I/V35T, E36D, V60I, K122E, D123S, I135V, E138D, S162A, K173T,Q174S, D177E, I178M, V189I, T200A, I202V, Q207E, F214L, V245Q mutant relative to control
[3] = tested on: Human immunodeficiency virus 1; assay: Antiviral activity against HIV-1 subtype CRF02_AG containing reverse transcriptase E138A/K20R, V35T, E36A, T39D, V60I, I135V, T139I, K173A, Q174K, T200E, Q207A, R211K, F214L mutant relative to control
[4] = tested on: Human immunodeficiency virus 1; assay: Antiviral activity against HIV-1 subtype CRF02_AG containing reverse transcriptase E138A/K20R, V35T, E36D, T39N, V60I, D123N, I135V, S162A, K173T, Q174K, D177E, T200A, Q207E, R211K mutant relative to control
[5] = tested on: Human immunodeficiency virus 1; assay: Antiviral activity against HIV-1 subtype CRF02_AG containing reverse transcriptase K101E/K30E, I31P, V35Q, T39S, E44G, E53G, A62G, N81H, Q91H,I135V,S162A, K173S, Q174R, D177E, V179I, T200I, Q207N, R211K, F214L mutant relative to control
[6] = tested on: Human immunodeficiency virus 1; assay: Antiviral activity against HIV-1 subtype CRF02_AG containing reverse transcriptase V90I/V35T, T39M, K46Q, V60I, S68G, D123E, I135V, S162A, K173A, Q174K,D177E, T200A, Q207E, R211K mutant relative to control
[7] = tested on: Human immunodeficiency virus 1; assay: Antiviral activity against HIV-1 subtype CRF02_AG containing reverse transcriptase V90I,A98G/V35T, E36D, T39K, S48A, I50V, V60I, S68G, I135V, S162A, K173T, Q174K, D177E, G196E, T200A, E203G, Q207D, R211K, Q222P mutant relative to control
[8] = tested on: Human immunodeficiency virus 1; assay: Antiviral activity against HIV-1 subtype CRF02_AG containing reverse transcriptase Y181C/V35T, V60I, I135V, S162A, K173T, Q174K, N175Y, D177E, T200A, Q207E, R211K, H221Y mutant relative to control
[9] = tested on: Human immunodeficiency virus 1; assay: Antiviral activity against HIV-1 subtype CRF02_AG containing reverse transcriptase V90I,Y181C/V35T, T39M, P119S, D123E, S162A, E169D, K173T, Q174K, D177E, T200A, Q207E, K219N, V245Q, E248D mutant relative to control

SMILES	Ratio IC50 [1]	Ratio IC50 [2]	Ratio IC50 [3]	Ratio IC50 [4]	Ratio IC50 [5]	Ratio IC50 [6]	Ratio IC50 [7]	Ratio IC50 [8]	Ratio IC50 [9]
Cc1cc(C#N)cc(C)c1Oc1nc(Nc2ccc(C#N)cc2)nc(N)c1Br [ETRAVIRINE]	2.9	1.3	3	1.7	1.3	1.6	1.2	11.1	3.3
Cc1ccnc2c1NC(=O)c1cccnc1N2C1CC1 [NEVIRAPINE]	8.3	0.7	0.5	0.4	2.2	1.3	2.4	>49.6	>70.9
